In test [1] the target is full-length apo DnaK (DnaK^FL) (Mycobacterium tuberculosis, UniProt P9WMJ9, T175A). The class given is binding.
For test [2], the target named is Mtb DnaK oligomers and DnaK-GrpE complex (Mycobacterium tuberculosis, UniProt P9WMJ9, T175A). The class given is binding.
The target of test [3] is apo, ATP-bound or ADP-bound DnaK T175A (Mycobacterium tuberculosis, UniProt P9WMJ9, T175A).
The target in test [4] is Mtb DnaK mutants (Mycobacterium tuberculosis, UniProt P9WMJ9, E514A). The test is classed as biochemical.
The target in test [5] is Mtb DnaK mutants (Mycobacterium tuberculosis, UniProt P9WMJ9). The class given is biochemical.
Test [6] concerns the target Mtb DnaK mutants (Mycobacterium tuberculosis, UniProt P9WMJ9, R127A). The class given is biochemical.
A further test deals with DnaK^NBD. The test is classed as binding. The conditions noted are these: ITC.
Test [7] has as its target Mtb DnaK Phe400Ala, Thr401Ala (Mycobacterium tuberculosis, UniProt P9WMJ9, F400A). The class given is binding.

The values below come from article PMC9124243 (Cell chemical biology, 2021).

For `CNC(=O)[C@H]1O[C@@H](n2cnc3c(NCc4cccc(I)c4)nc(Cl)nc32)[C@H](O)[C@@H]1O` [MECA, 2Cl-IB-MECA], the “binding to DnaK alone” value in test [1] was “does not bind to DnaK alone”. Besides, the DnaK-GrpE complex formation entry in test [2] was “not affected”.

In the case of `CCC[C@H](NC(=O)[C@@H]1[C@H]2CCC[C@H]2CN1C(=O)[C@@H](NC(=O)[C@@H](NC(=O)c1cnccn1)C1CCCCC1)C(C)(C)C)C(=O)C(=O)NC1CC1` [TP, Telaprevir], the “cleavage of DnaK by proteinase K” value in test [3] is reported as “protects full-length DnaK from cleavage”. For the same molecule, in test [1], the “stoichiometry TP: DnaK” value was ~ 0.5. In test [2], the “oligomeric state of apo DnaK” value was “inhibited formation of dimers and higher order oligomers”. At Mtb DnaK mutants [4], the “increase in the IC50 value compared to wild-type” value was found to be 1.4 fold. Also, at Mtb DnaK mutants [5], the “ATPase activity of DnaK lacking last ~110 residues (A513-K625)” value is listed as “still disrupted ATPase activity”. Further, at Mtb DnaK mutants [6], the “ATPase activity of DnaK Arg127Ala with excess TP” value is given as “tolerance to excess TP”. For the same molecule, in the test with DnaK^NBD, the “interaction with DnaK^NBD” value was “no interaction”.

Take “FL-β-Ala-Asn-Arg-Leu-Leu-Leu-Thr-Gly-OH [FL-NR]”: the “EC50 for Phe400Ala relative to WT” value in test [7] is on record as ~ 40 fold.
